Assay results: ChEMBL document CHEMBL3885861, “Open TG-GATES”

Organism: Rattus norvegicus
Assay: Open TG-GATES - Regimen: Single
Type: toxicity, organism-based, Sprague-Dawley
Set-up: regimen Single, gender Male, age 6 weeks
Settings: in vivo, po, route gavage; for APTT / Bas / Eos / Fbg / Hb / Ht / Lym / MCH / MCHC / MCV / Mono / Neu / PT / Plat / RBC / Ret / WBC: tissue Blood; for KIDNEY_L / KIDNEY_R / KIDNEY_TOTAL: tissue Kidney; for LIVER: tissue Liver; for A/G / ALP / ALT / AST / BUN / CRE / Ca / Cl / DBIL / GLC / IP / K / LDH / Na / PL / RALB / TBIL / TC / TG / TP / gamma-GTP: tissue Plasma
[1] = 150 mg/kg, 3 h, dose level Middle
[2] = 150 mg/kg, 6 h, dose level Middle
[3] = 150 mg/kg, 9 h, dose level Middle
[4] = 150 mg/kg, 24 h, dose level Middle
[5] = 500 mg/kg, 3 h, dose level High
[6] = 500 mg/kg, 6 h, dose level High
[7] = 500 mg/kg, 9 h, dose level High
[8] = 500 mg/kg, 24 h, dose level High

## CC(=O)Oc1cc(C(C)C)c(OCCN(C)C)cc1C [MOXISYLYTE]
[1]
  TERMINAL_BW: 205.7 g
  APTT: 22.9 s
  Bas: 0%
  Eos: 1%
  Fbg: 293 mg/dL
  Hb: 13.5 g/dL
  Ht: 39.8%
  Lym: 75%
  MCH: 21.3 pg
  MCHC: 33.8%
  MCV: 62.8 fL
  Mono: 1.6%
  Neu: 21.8%
  PT: 15.9 s
  Plat: 112.4 x10_4/uL
  RBC: 634.4 x10_4/ul
  Ret: 7.5%
  WBC: 68.3 x10_2/uL
  KIDNEY_L: 0.9 g
  KIDNEY_R: 0.9 g
  KIDNEY_TOTAL: 1.8 g
  LIVER: 9.3 g
  A/G: 1.3
  ALP: 1569.2 IU/L
  ALT: 44 IU/L
  AST: 81.4 IU/L
  BUN: 13.2 mg/dL
  CRE: 0.2 mg/dL
  Ca: 10.5 mg/dL
  Cl: 107.8 meq/L
  DBIL: 0.004 mg/dL
  GLC: 194 mg/dL
  IP: 9.3 mg/dL
  K: 4.2 meq/L
  LDH: 315.8 IU/L
  Na: 142 meq/L
  PL: 128.4 mg/dL
  RALB: 3.1 g/dL
  TBIL: 0.03 mg/dL
  TC: 75.8 mg/dL
  TG: 28.8 mg/dL
  TP: 5.4 g/dL
  gamma-GTP: 1.2 IU/L
[2]
  TERMINAL_BW: 206.6 g
  APTT: 21.8 s
  Bas: 0%
  Eos: 1%
  Fbg: 313.2 mg/dL
  Hb: 13.3 g/dL
  Ht: 38.6%
  Lym: 72%
  MCH: 20.8 pg
  MCHC: 34.4%
  MCV: 60.3 fL
  Mono: 2.2%
  Neu: 23.8%
  PT: 15.8 s
  Plat: 129.5 x10_4/uL
  RBC: 641.2 x10_4/ul
  Ret: 7.2%
  WBC: 67.7 x10_2/uL
  KIDNEY_L: 0.9 g
  KIDNEY_R: 0.9 g
  KIDNEY_TOTAL: 1.9 g
  LIVER: 8.9 g
  A/G: 1.2
  ALP: 1449.6 IU/L
  ALT: 39.4 IU/L
  AST: 74.8 IU/L
  BUN: 10.6 mg/dL
  CRE: 0.2 mg/dL
  Ca: 10.6 mg/dL
  Cl: 108.4 meq/L
  DBIL: 0.01 mg/dL
  GLC: 181.8 mg/dL
  IP: 9 mg/dL
  K: 4.8 meq/L
  LDH: 253.6 IU/L
  Na: 140.8 meq/L
  PL: 137.4 mg/dL
  RALB: 3 g/dL
  TBIL: 0.008 mg/dL
  TC: 72.2 mg/dL
  TG: 61.6 mg/dL
  TP: 5.4 g/dL
  gamma-GTP: 1 IU/L
[3]
  TERMINAL_BW: 208.5 g
  APTT: 21.5 s
  Bas: 0%
  Eos: 1%
  Fbg: 308.2 mg/dL
  Hb: 13.3 g/dL
  Ht: 38.7%
  Lym: 72%
  MCH: 21.2 pg
  MCHC: 34.5%
  MCV: 61.4 fL
  Mono: 2.4%
  Neu: 23.8%
  PT: 15.9 s
  Plat: 118.6 x10_4/uL
  RBC: 631.2 x10_4/ul
  Ret: 8.4%
  WBC: 93 x10_2/uL
  KIDNEY_L: 1 g
  KIDNEY_R: 1 g
  KIDNEY_TOTAL: 1.9 g
  LIVER: 8.5 g
  A/G: 1.3
  ALP: 1409.6 IU/L
  ALT: 38.8 IU/L
  AST: 70.2 IU/L
  BUN: 11.4 mg/dL
  CRE: 0.2 mg/dL
  Ca: 10.5 mg/dL
  Cl: 107.8 meq/L
  DBIL: 0.008 mg/dL
  GLC: 181.8 mg/dL
  IP: 9.7 mg/dL
  K: 4.3 meq/L
  LDH: 240.2 IU/L
  Na: 141.8 meq/L
  PL: 135 mg/dL
  RALB: 3.1 g/dL
  TBIL: 0.026 mg/dL
  TC: 75.6 mg/dL
  TG: 47.4 mg/dL
  TP: 5.6 g/dL
  gamma-GTP: 1 IU/L
[4]
  TERMINAL_BW: 221.8 g
  APTT: 21.2 s
  Bas: 0%
  Eos: 0.8%
  Fbg: 313.8 mg/dL
  Hb: 13.5 g/dL
  Ht: 38.6%
  Lym: 79.6%
  MCH: 21.3 pg
  MCHC: 34.9%
  MCV: 61.2 fL
  Mono: 2%
  Neu: 17.4%
  PT: 15.8 s
  Plat: 121.2 x10_4/uL
  RBC: 632.2 x10_4/ul
  Ret: 7.7%
  WBC: 96.5 x10_2/uL
  KIDNEY_L: 1 g
  KIDNEY_R: 1 g
  KIDNEY_TOTAL: 2 g
  LIVER: 10.8 g
  A/G: 1.2
  ALP: 1617.2 IU/L
  ALT: 43.6 IU/L
  AST: 70.8 IU/L
  BUN: 17.2 mg/dL
  CRE: 0.2 mg/dL
  Ca: 11.3 mg/dL
  Cl: 106 meq/L
  DBIL: 0 mg/dL
  GLC: 179.4 mg/dL
  IP: 7.4 mg/dL
  K: 4.3 meq/L
  LDH: 247.2 IU/L
  Na: 141.8 meq/L
  PL: 163.2 mg/dL
  RALB: 3.2 g/dL
  TBIL: 0.006 mg/dL
  TC: 81.6 mg/dL
  TG: 178.8 mg/dL
  TP: 5.9 g/dL
  gamma-GTP: 1.4 IU/L
[5]
  TERMINAL_BW: 212.3 g
  APTT: 21.6 s
  Bas: 0%
  Eos: 1.2%
  Fbg: 311.2 mg/dL
  Hb: 12.6 g/dL
  Ht: 37.4%
  Lym: 72.6%
  MCH: 21.4 pg
  MCHC: 33.7%
  MCV: 63.2 fL
  Mono: 2%
  Neu: 23.6%
  PT: 16 s
  Plat: 115.9 x10_4/uL
  RBC: 590.6 x10_4/ul
  Ret: 8.3%
  WBC: 64.3 x10_2/uL
  KIDNEY_L: 0.9 g
  KIDNEY_R: 1 g
  KIDNEY_TOTAL: 1.9 g
  LIVER: 9.7 g
  A/G: 1.4
  ALP: 1326.8 IU/L
  ALT: 43 IU/L
  AST: 81.6 IU/L
  BUN: 14.6 mg/dL
  CRE: 0.1 mg/dL
  Ca: 10.6 mg/dL
  Cl: 107.8 meq/L
  DBIL: 0.014 mg/dL
  GLC: 196.8 mg/dL
  IP: 10.3 mg/dL
  K: 4.5 meq/L
  LDH: 251 IU/L
  Na: 142.2 meq/L
  PL: 132.2 mg/dL
  RALB: 3.1 g/dL
  TBIL: 0.028 mg/dL
  TC: 79 mg/dL
  TG: 33.8 mg/dL
  TP: 5.5 g/dL
  gamma-GTP: 1 IU/L
[6]
  TERMINAL_BW: 211.5 g
  APTT: 21.2 s
  Bas: 0%
  Eos: 1%
  Fbg: 318.6 mg/dL
  Hb: 13 g/dL
  Ht: 38%
  Lym: 77%
  MCH: 21.2 pg
  MCHC: 34.1%
  MCV: 62.1 fL
  Mono: 2.2%
  Neu: 19.2%
  PT: 15.6 s
  Plat: 119.7 x10_4/uL
  RBC: 611.8 x10_4/ul
  Ret: 8.1%
  WBC: 63.2 x10_2/uL
  KIDNEY_L: 1 g
  KIDNEY_R: 1 g
  KIDNEY_TOTAL: 2 g
  LIVER: 9.8 g
  A/G: 1.3
  ALP: 1572.4 IU/L
  ALT: 40.6 IU/L
  AST: 75.2 IU/L
  BUN: 11.8 mg/dL
  CRE: 0.1 mg/dL
  Ca: 10.5 mg/dL
  Cl: 107.8 meq/L
  DBIL: 0.014 mg/dL
  GLC: 194.2 mg/dL
  IP: 10 mg/dL
  K: 4.5 meq/L
  LDH: 239 IU/L
  Na: 141 meq/L
  PL: 141.6 mg/dL
  RALB: 3.1 g/dL
  TBIL: 0.026 mg/dL
  TC: 75.4 mg/dL
  TG: 42.4 mg/dL
  TP: 5.5 g/dL
  gamma-GTP: 1.2 IU/L
[7]
  TERMINAL_BW: 205.5 g
  APTT: 20.8 s
  Bas: 0%
  Eos: 0.8%
  Fbg: 351 mg/dL
  Hb: 13.6 g/dL
  Ht: 40.1%
  Lym: 69.2%
  MCH: 21.4 pg
  MCHC: 33.9%
  MCV: 63.3 fL
  Mono: 2.6%
  Neu: 27.4%
  PT: 15.8 s
  Plat: 124.5 x10_4/uL
  RBC: 633.8 x10_4/ul
  Ret: 7.8%
  WBC: 68.7 x10_2/uL
  KIDNEY_L: 0.9 g
  KIDNEY_R: 1 g
  KIDNEY_TOTAL: 1.9 g
  LIVER: 9.1 g
  A/G: 1.2
  ALP: 1633.4 IU/L
  ALT: 41 IU/L
  AST: 76.6 IU/L
  BUN: 11.4 mg/dL
  CRE: 0.1 mg/dL
  Ca: 10.4 mg/dL
  Cl: 108.6 meq/L
  DBIL: 0.018 mg/dL
  GLC: 196.6 mg/dL
  IP: 9.9 mg/dL
  K: 4.3 meq/L
  LDH: 223.6 IU/L
  Na: 142.2 meq/L
  PL: 142 mg/dL
  RALB: 3.1 g/dL
  TBIL: 0.034 mg/dL
  TC: 74.8 mg/dL
  TG: 49.4 mg/dL
  TP: 5.7 g/dL
  gamma-GTP: 1.2 IU/L
[8]
  TERMINAL_BW: 215.6 g
  APTT: 19.4 s
  Bas: 0%
  Eos: 0.8%
  Fbg: 300.6 mg/dL
  Hb: 13.4 g/dL
  Ht: 38.6%
  Lym: 76.4%
  MCH: 22.1 pg
  MCHC: 34.7%
  MCV: 63.6 fL
  Mono: 2%
  Neu: 20%
  PT: 15.8 s
  Plat: 140.3 x10_4/uL
  RBC: 607.2 x10_4/ul
  Ret: 8.2%
  WBC: 111.6 x10_2/uL
  KIDNEY_L: 1 g
  KIDNEY_R: 1 g
  KIDNEY_TOTAL: 1.9 g
  LIVER: 10.4 g
  A/G: 1.2
  ALP: 1455.6 IU/L
  ALT: 44.8 IU/L
  AST: 73.4 IU/L
  BUN: 18 mg/dL
  CRE: 0.1 mg/dL
  Ca: 11.1 mg/dL
  Cl: 106.4 meq/L
  DBIL: 0 mg/dL
  GLC: 176.8 mg/dL
  IP: 8.6 mg/dL
  K: 4.1 meq/L
  LDH: 241 IU/L
  Na: 142 meq/L
  PL: 149.8 mg/dL
  RALB: 3 g/dL
  TBIL: 0.006 mg/dL
  TC: 77 mg/dL
  TG: 100.6 mg/dL
  TP: 5.6 g/dL
  gamma-GTP: 1 IU/L
